Data from ChEMBL document CHEMBL1201862, “PubChem BioAssay data set” (2004).
The source made the active and inactive calls.

How the values were obtained:
[1] = tested on: Vero; experiment: cells; assay type: functional; conditions: Chlorocebus sabaeus
[2] = microbe, parasite or virus in culture; assay type: functional; conditions: Mycobacterium tuberculosis
[3] = THP-1 cell cytotoxicity, dose response, cytotoxicity control for Vif-APOBEC3G degradation inhibitor project, THP-1 cells (AID 1117359); assay type: functional; conditions: Human immunodeficiency virus 1, THP-1
[4] = ZM109 Env clade C HIV-1 fusion inhibitors, dose response, HeLa effector, CEM target cells, luciferase, cherry-pick (AID 652058); assay type: functional, cell-based
[5] = off-target signal loss in HeLa-CEM21 co-culture – HeLa F-luc CTL cells, cherry-picked, counter-screen for HIV-1 Env fusion inhibitor project, dose response (AID 652040); assay type: functional, cell-based;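 further: potency for signal decrease marking cytotoxic or nonspecific inhibition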
[6] = inhibitors of HIV Env-driven cell fusion, dose response, cherry-pick (AID 652057); assay type: functional, cell-based
[7] = inhibitors of clade B AD8 Env fusion, dose response, cell-based, cherry-pick (AID 652062); assay type: functional;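 further: luciferase signal from cell-cell fusion driven by HIV-1 clade B AD8 Env; potency is for inhibitors of fusion seen as a drop in luminescence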
[8] = P. falciparum Dd2 growth inhibitors, dose response, SYBR Green, cherry-picked samples (AID 1159567); assay type: functional, cell-based
[9] = P. falciparum Dd2 growth inhibitors, dose response, SYBR Green, dry powder samples (AID 1159566); assay type: functional, cell-based;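 further: potency for growth inhibition with lower SYBR green DNA signal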
[10] = P. falciparum ATP4 D1247Y mutant growth inhibitors, dose response, NITD609-resistant line, SYBR Green, dry powder (AID 1159571); assay type: functional, cell-based;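 further: parasites synchronized at ring stage by sorbitol before testing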
[11] = P. falciparum 3D7-ScDHODH growth inhibitors, dose response, SYBR Green, dry powder samples (AID 1159570); assay type: functional, cell-based;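 further: parasite growth measured after 72 hours of compound exposure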
[12] = Luminescence Cell-Based Dose Retest to Confirm Inhibitors of Cancer Stem Cells. [Related pubchem assays (depositor defined):AID2717, AID2721]; assay type: functional; conditions: Homo sapiens
[13] = HEp-2 cell cytotoxicity, dose response, cytotoxicity control for RSV inhibitor project, HTS (AID 2410); assay type: functional; conditions: human respiratory syncytial virus
[14] = inhibitors of intracellular T. cruzi replication, confirmation, NIH3T3 host cells, beta-gal luminescence (AID 2044); assay type: functional, cell-based;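 further: intracellular parasites grown in NIH/3T3 mouse fibroblasts as host cells; luminescent beta-galactosidase reporter signal from transgenic T. cruzi replicating inside host cells; inhibitors lower the luminescence signal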
[15] = tested on: INS1; experiment: beta cell apoptosis inhibitors, cytokine rescue, dose response, luminescence, retest (AID 449756); assay type: functional, cell-based; conditions: Rattus norvegicus;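 further: cell death triggered by IL-1 beta plus TNF-alpha plus IFN-gamma mixture; protective hits raise ATP signal compared with cytokine alone wells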
[16] = control 3'UTR Renilla luciferase suppression, dose response, counter-screen for Shn3 inhibitor project, cell-based, Clone20-Shn3RL, cherry-picked (AID 624133); assay type: functional
[17] = HepG2 cell cytotoxicity, dose response, cytotoxicity control for Shn3 inhibitor project, CellTiter-Glo, cherry-picked (AID 624134); assay type: functional, cell-based
[18] = cytotoxicity toward NIH3T3 fibroblasts, dose response, counter-screen, cell-based, ATP luminescence, mouse fibroblasts (AID 2010); assay type: functional;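 further: cells exposed to compound for about 90 hours before reading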
[19] = Shn3 3'UTR reporter inhibitors, dose response, cell-based, Clone20 osteoblasts, firefly luciferase, cherry-picked (AID 624132); assay type: functional;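 further: firefly luciferase luminescence from reporter carrying the Shn3 3'UTR in osteoblasts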

Structure (SMILES): c1cc2c(cc1C1CCCCC1)c1c3n2CCN=C3CCC1
- CC50 [1]: > 25 µM (active)

Structure (SMILES): C=CCOc1ccc2c(c1)C(=NO)c1cc(OCC=C)ccc1-2
- CC50 [2]: > 40 µM (active)
- CC50 [3]: > 40 µM (active)

Structure (SMILES): COc1ccc(Cl)cc1NC(=O)CN(C1CCCCC1)S(C)(=O)=O
- AC50 [4]: 5.49 µM (active)
- AC50 [5]: 4.33 µM (active)
- AC50 [6]: 3.13 µM (active)
- AC50 [7]: 2.69 µM (active)

Structure (SMILES): COc1ccc(NC(=O)N2CCCCN3[C@H](CO)[C@H](c4ccc(C#Cc5ccccn5)cc4)[C@@H]3C2)cc1
- AC50 [8]: 0.301 µM (active)
- AC50 [9]: 0.131 µM (active)
- AC50 [10]: 0.109 µM (active)
- AC50 [11]: 0.109 µM (active)

Structure (SMILES): CC(C)C[C@H]1COCn2nncc2CC[C@@H](Cc2ccccc2)C(=O)N1
- AC50 [4]: 7.51 µM (active)
- AC50 [6]: 7.3 µM (active)
- AC50 [7]: 12.9 µM (active)

Structure (SMILES): COc1ccc2c3c(n(C)c2c1)[C@@H](CO)N(CC1CCCCC1)CC31CCN(Cc2nccs2)CC1
- AC50 [8]: 1.12 µM (active)
- AC50 [9]: 1.03 µM (active)
- AC50 [10]: 0.891 µM (active)
- AC50 [11]: 0.835 µM (active)

Structure (SMILES): CCOc1ccc(/C=C/C(O)=C2/C(=O)N(C)C3(C)CC2c2ccccc2O3)cc1OC (stereo not given)
- AC50 [12]: 2.44 µM (active)
- CC50 [13]: 2.92 µM (active)
- CC50 [1]: 11.6 µM (active)

Structure (SMILES): CCOc1ccccc1CNc1ncnc2ccc(-c3c(C)noc3C)cc12
- AC50 [5]: > 70 µM (inactive)
- AC50 [12]: 21.6 µM (active)
- AC50 [7]: 44.5 µM (active)

Structure (SMILES): CCOc1ccc(-[n+]2c(-c3ccccc3)cn3c2CCC3)cc1
- EC50 [14]: 0.351 µM (active)
- AC50 [15]: 1.43 µM (active)
- AC50 [16]: 0.392 µM (active)
- AC50 [17]: 49 µM (active)
- EC50 [18]: 24.2 µM (active)
- AC50 [19]: 0.526 µM (active)
